Source: EPA's ToxValDB 9.5 (doi:10.2903/j.efsa.2010.1722)
≈ marks a conversion by molar mass, not a printed value.

How the values were obtained:
Anas platyrhynchos = conditions: oral, mortality
Mus musculus = conditions: acute; oral; mortality
Apis mellifera = conditions: acute, mortality
Bibionidae = conditions: chronic/long-term; duration: 21 days; other
Canidae = conditions: oral, Dog Other
Tagia sp. = conditions: acute; duration: 14 days; mortality
Oncorhynchus mykiss = conditions: chronic/long-term; duration: 28 days; growth
Aphidius matricariae [1] = conditions: not reported; reproduction
Lepomis macrochirus = conditions: acute; duration: 96 hours; mortality
Daphnia magna = conditions: chronic/long-term; duration: 21 days; reproduction
Colinus virginianus = conditions: reproduction developmental
Aphidius matricariae [2] = assay: LR50; higher = less toxic; conditions: not reported; mortality

SMILES: C[C@H]1[C@H](c2ccc(Cl)cc2)SC(=O)N1C(=O)NC1CCCCC1 [Hexythiazox]
- LD50 (Anas platyrhynchos; acute, unspecified): > 2000 mg/kg
- LC50 (Anas platyrhynchos; short-term, feed): > 523 mg/kg-day
- LD50 (Mus musculus): > 5000 mg/kg
- LD50 (Apis mellifera; dermal): > 200 µg/piece
- LD50 (Apis mellifera; duration: 48 hours, oral, unspecified): > 112 µg/piece
- NOEC (Bibionidae): 1.7 mg/L
- LD50 (Canidae; acute, mortality): > 5000 mg/kg
- NOAEL (Canidae; chronic, duration: 1 years, histopathology: nonneoplastic): 2.87 mg/kg-day
- LC50 (Tagia sp.): > 105 mg/kg
- LD50 (Rattus norvegicus; acute, oral, mortality): > 5000 mg/kg
- NOEL (Rattus norvegicus; chronic): 23.5 mg/kg-day
- NOAEL (Rattus norvegicus; chronic, duration: 2 years, clinical chemistry): 3.2 mg/kg-day
- NOEC (Oncorhynchus mykiss): 0.04 mg/L
- LEL (Aphidius matricariae [1]): 158 g/ha
- LC50 (Lepomis macrochirus): 3.2 µg/mL (≈ 9.07 µM)
- NOEC (Daphnia magna): 0.0061 mg/L
- NOEC (Colinus virginianus): 100 mg/kg-day
- LR50 (Aphidius matricariae [2]): > 158 g/ha
